Test results as given in US6610703B1, “Method for treatment of glycolipid storage diseases” (G.D. Searle & Co., priority 1998, dated 2003).

Key:
[1] = Organ distribution of radiolabelled compound in mouse after oral gavage; type: in vivo; settings: for % recovered radioactivity, Brain / % recovered radioactivity, Liver: normal mouse, gavage; for distribution in mouse liver (deposition and clearance): oral gavage, 30, 60 and 90 minutes (FIG. 10)
Description: Mouse body fluids and organs were collected for different times after gavage with radiolabelled compound. Radioactivity in each sample was determined and expressed as a percentage of radio-activity recovered. Solid bars, NN-DNJ, hatched bars, NB-DNJ.
The radioactivity recovered (%) is plotted against N-alkyl chain length (C4 to C18) for 30 minutes (clear bars), 60 minutes (shaded bars) and 90 minutes (filled, black bars). […] Short chain compounds (C4-C6) are rapidly cleared in a time-dependent manner. […] The C12 to C18 analogs show the reverse trend, i.e., reduced appearance in the liver but this increases with time.
The radioactivity recovered (%) is plotted against N-alkyl chain length (C4 to C18) for 30 minutes (clear bars), 60 minutes (shaded bars) and 90 minutes (filled, black bars).
FIG. 12 is a series of four bar charts, A, B, C and D, in which radioactivity (cpm) found in the liver is plotted against time post gavage in hours (h) with four different N-alkyl analogs of deoxynojirimycin (DNJ). The four analogs shown are:; FIG. 12A, N-butyl(C4); FIG. 12B, N-nonyl (C9); FIG. 12C, N-dodecyl(C12); FIG. 12D, N-cis-13-octadecenyl (C18).
FIG. 13 is a series of four bar charts, A, B, C and D, in which radioactivity (cpm) found in the brain is plotted against time post gavage in hours (h) with the same analog compounds as in FIG. 12. The four analogs shown are: FIG. 13A, N-butyl (C4); FIG. 13B, N-nonyl (C9); FIG. 13C, N-dodecyl (C12); FIG. 13D, N-cis-13-octadecenyl (C18).
Further evidence that longer alkyl chains are taken up much better has been obtained by in vivo studies with mouse.

[2] = test system: glycolipid biosynthesis; settings: according to U.S. Pat. No. 5,472,969, cited from earlier work; for dose required / activity against glycolipid biosynthesis: unit not given
[3] = test system: human myeloid (HL-60) cells; assay: Inhibition of glycolipid biosynthesis in HL-60 cells (radiolabelled palmitic acid, TLC, scanning densitometry); type: cell-based; settings: for times more sensitive HL-60 cells than CHO cells: HL-60 versus CHO cells
Description: Cells were cultured for four days in the presence of radiolabelled palmitic acid and the following concentrations of compound:
After extraction the radioactively labelled glycolipids were separated by TLC and visualized by radioautography.
Chinese Hamster Ovary (CHO) cells and human myeloid (HL-60) cells grown in the presence of varying concentrations of inhibitor in addition to a precursor (radiolabelled palmitic acid) of glycolipid biosynthesis were treated with solvents to extract the glycolipids by the procedure described by Platt et al., J. Biol. Chem. 269, 8362-8365 (1994).
The radiolabelled lipids were separated by TLC (FIG. 1) and bands corresponding to glucosylceramide and lactosyl-ceramide were quantitated by scanning densitometry to estimate the reduction in glycolipid biosynthesis.

[4] = test system: CHO, MDBK and HepG2 cells; assay: Cell-associated radioactivity (uptake) of radiolabelled compound in cultured cells; type: in vitro ADME; settings: MDBK and HepG2, incubated up to 24 hours
[5] = test system: Hepatitis B virus (HBV); settings: Block et al., Nature Medicine 1998; cited from earlier work
[6] = test system: Serum Protein; assay: Imino sugar (N-alkyl DNJ) binding to serum protein; type: in vitro ADME; settings: protein bound versus non-bound radioactivity (FIG. 14)
Source text: The percentage compound radioactivity is plotted against N-alkyl chain length (C4 to C18) with the protein bound percentage shown by open circles and the non-bound percentage shown by filled circles. […] Short chain compounds (C4-C6) bind poorly but those larger than C10 are almost completely bound to protein.

[7] = molecular target: T1, HL-60 cell ceramide glucosyltransferase (Homo sapiens, UniProt Q16739); assay: In vitro inhibition of HL-60 cell ceramide glucosyltransferase activity; type: biochemical; settings: C4 to C18 series (FIG. 8)
T1 construct: endogenous in cells; host or cells: HL-60 (human myeloid) cells
T1 sequence (Q16739 1-394): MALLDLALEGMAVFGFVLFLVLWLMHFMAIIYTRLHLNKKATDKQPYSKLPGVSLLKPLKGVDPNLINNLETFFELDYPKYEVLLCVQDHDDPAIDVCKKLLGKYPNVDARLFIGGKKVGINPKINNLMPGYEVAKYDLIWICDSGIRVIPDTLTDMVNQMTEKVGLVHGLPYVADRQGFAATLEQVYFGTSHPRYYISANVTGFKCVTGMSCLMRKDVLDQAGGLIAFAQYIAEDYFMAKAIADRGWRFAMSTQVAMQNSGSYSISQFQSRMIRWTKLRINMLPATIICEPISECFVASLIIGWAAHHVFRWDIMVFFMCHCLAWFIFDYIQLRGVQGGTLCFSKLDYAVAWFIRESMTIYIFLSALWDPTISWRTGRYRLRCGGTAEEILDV

For `CCCCN1C[C@H](O)[C@@H](O)[C@H](O)[C@H]1CO` [N-butyl-DNJ, N-butyldeoxynojirimycin, reference compound], the “time after which the majority of radioactivity is found in the liver” value ([1]; mouse, post gavage (FIG. 12)) was 1.5 h, the “% recovered radioactivity, Brain” value ([1]; 30 min) was 0.2% and the “% recovered radioactivity, Liver” value ([1]; 30 min) was 8.5%. For the same compound, the “% recovered radioactivity, Brain” value ([1]; 60 min) was 0.1%, the “% recovered radioactivity, Liver” value ([1]; 60 min) was 2.8% and the “% recovered radioactivity, Brain” value ([1]; 90 min) was 0.03%. The “% recovered radioactivity, Liver” value ([1]; 90 min) was 0.9%, the “dose required / activity against glycolipid biosynthesis” value [2] was 0.01-0.1 and the “times more sensitive HL-60 cells than CHO cells” value [3] was “more than 10 times”.
With `CCCC/C=C\CCCCCCCCCCCCN1C[C@H](O)[C@@H](O)[C@H](O)[C@H]1CO` [C18] the “deposition in the liver” value ([1]; mouse, 24 h post gavage (FIG. 12)) was “significant deposition”.
With `CCCCCCCCCN1C[C@H](O)[C@@H](O)[C@H](O)[C@H]1CO` [N-nonyl-DNJ, N-nonyl-1.5-dideoxy-1,5-imino-D-glucitol] the “% recovered radioactivity, Brain” value ([1]; 30 min) was 0.4%, the “% recovered radioactivity, Liver” value ([1]; 30 min) was 27.1% and the “% recovered radioactivity, Brain” value ([1]; 60 min) was 0.3%. The “% recovered radioactivity, Liver” value ([1]; 60 min) was 12.6%, the “% recovered radioactivity, Brain” value ([1]; 90 min) was 0.4% and the “% recovered radioactivity, Liver” value ([1]; 90 min) was 13.5%. The “distribution in mouse liver (deposition and clearance)” value [1] was “increased deposition and slower clearance”, the “increase of cell-associated radioactivity versus N-butyl-DNJ” value [4] was 3.5-5 fold and the “times more sensitive HL-60 cells than CHO cells” value [3] was 100 times. The “inhibition of Hepatitis B virus” value [5] was “effective as an inhibitor” and the “binding to serum protein” value [6] was “favor equally, protein and solution phase”.
In the case of `CN1C[C@H](O)[C@@H](O)[C@H](O)[C@H]1CO` [N-methyl analog], the “dose required / activity against glycolipid biosynthesis” value [2] is given as “inactive”.
In the case of `CCCCCCCCCCN1C[C@H](O)[C@@H](O)[C@H](O)[C@H]1CO` [N-decyl-DNJ], the “distribution in mouse liver (deposition and clearance)” value [1] is reported as “increased deposition and slower clearance”, the “inhibition at times lower concentrations than N-butyl-DNJ” value ([3]; HL-60 cell-based assay) is reported as 50 times and the “inhibition of ceramide glucosyltransferase versus N-alkyl chain length” value [7] is reported as “optimal”.
For `CCCCCCN1C[C@H](O)[C@@H](O)[C@H](O)[C@H]1CO` [N-hexyl derivative of DNJ], the “dose required for activity against glycolipid biosynthesis” value [2] is listed as 0.2 mg/mL.
For `CCCCCCCCN1CC(O)C(O)C(O)C1CO` (stereo not drawn) [C8], the “binding to serum protein” value [6] was “favor equally, protein and solution phase”.
